The target in the experiment is T1, TMEM16A (Homo sapiens, UniProt Q5XXA6).
T1 construct: gene ANO1
T1 sequence (Q5XXA6 1-986): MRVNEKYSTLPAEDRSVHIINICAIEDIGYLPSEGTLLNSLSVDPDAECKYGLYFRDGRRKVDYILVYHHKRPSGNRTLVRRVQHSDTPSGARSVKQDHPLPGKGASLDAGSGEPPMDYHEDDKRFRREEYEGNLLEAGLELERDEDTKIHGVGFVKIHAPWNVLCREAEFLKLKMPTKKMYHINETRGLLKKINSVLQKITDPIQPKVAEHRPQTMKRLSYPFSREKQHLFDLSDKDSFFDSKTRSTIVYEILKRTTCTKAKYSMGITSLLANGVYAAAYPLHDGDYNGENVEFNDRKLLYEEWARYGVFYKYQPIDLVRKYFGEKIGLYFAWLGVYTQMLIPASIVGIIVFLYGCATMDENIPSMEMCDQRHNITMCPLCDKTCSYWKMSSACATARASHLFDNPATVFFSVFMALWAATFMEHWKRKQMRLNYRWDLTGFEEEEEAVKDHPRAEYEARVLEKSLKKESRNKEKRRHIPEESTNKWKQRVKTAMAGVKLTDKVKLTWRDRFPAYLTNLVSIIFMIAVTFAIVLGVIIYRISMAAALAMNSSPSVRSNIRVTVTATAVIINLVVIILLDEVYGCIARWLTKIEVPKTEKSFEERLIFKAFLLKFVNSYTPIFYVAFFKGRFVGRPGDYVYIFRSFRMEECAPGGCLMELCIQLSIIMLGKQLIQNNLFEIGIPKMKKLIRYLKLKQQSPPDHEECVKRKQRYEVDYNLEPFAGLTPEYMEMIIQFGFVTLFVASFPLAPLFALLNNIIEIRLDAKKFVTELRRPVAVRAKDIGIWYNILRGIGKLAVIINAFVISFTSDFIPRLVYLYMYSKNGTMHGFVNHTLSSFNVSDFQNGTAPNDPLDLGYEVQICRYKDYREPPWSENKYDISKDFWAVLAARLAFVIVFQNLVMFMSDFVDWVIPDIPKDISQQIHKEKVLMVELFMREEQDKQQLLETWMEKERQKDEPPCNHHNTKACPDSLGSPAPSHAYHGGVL
Briefly: short-circuit current (Eact-induced Cl- current) in basolaterally permeabilized FRT cells expressing TMEM16A; also YFP fluorescence quenching. The class given is cell-based.

From paper PMC4993765, “Shikonin Inhibits Intestinal Calcium-Activated Chloride Channels and Prevents Rotaviral Diarrhea” (Frontiers in Pharmacology, 2016) come the findings set out here.

pIC50: −log10 of the molar value.

Usually pIC50 stands for the negative decadic logarithm of the IC50, by convention in mol/L. Read a low pIC50 as a high IC50.

`CC(C)=CC[C@@H](O)C1=CC(=O)c2c(O)ccc(O)c2C1=O` [shikonin]: the pIC50 was 5.82.
